# Where two headings read alike, the source gives them in different places.
# Key:
# [1] = system: pathological sputum of bronchitic rabbits; assay: Mucus regulating properties in bronchitic rabbits (sputum AUC as % compared to bronchitic controls); type: in vivo, male New Zealand white rabbits; settings: for Fucose (mg/ml), AUC as a 100% compared to bronchitic controls / Galactose (mg/ml), AUC as a 100% compared to bronchitic controls / Mucus production (ml/kg), AUC as a 100% compared to bronchitic controls / Phospholipids (mg/ml), AUC as a 100% compared to bronchitic controls / Protein (mg/ml), AUC as a 100% compared to bronchitic controls / Sialic acid (mg/ml), AUC as a 100% compared to bronchitic controls / Viscosity (cps), AUC as a 100% compared to bronchitic controls: Table 2, equimolecular amounts to S-carboxymethyl cysteine; for mucus regulating activity (in words): rabbit, in vivo; for mucus regulating effectiveness compared with carboxymethylcysteine: dosage level 0.01-0.08M vs 0.153M carboxymethylcysteine
# Experimental: The animals are submitted to inhalation of a 5% H2 SO3 aqueous solution by aerosol (exposition of 3 hours a day for 3 alternate days), to induce a chronic bronchial inflammatory disease which causes a production of pathological sputum in the bronchial tree.
# Aim of the experiments is to evaluate modifications of selective parameters such as dry weight of the sputum, viscosity, content in proteins, phospholipids, galactose, sialic acid and fucose, induced in this pathological sputum by pharmacological treatment with the compounds of the invention.
# To this purpose, the sputum produced in the bronchial tree is collected daily, through a "T" shaped glass cannula, inserted in the trachea, before and after oral twice a day (9.00 a.m. and 4.00 p.m.) treatment with one of the compounds of the invention.
# The schedule treatment procedure is shown in the following Scheme 1: [drawing 21] where 0 indicates the day of implantation of the tracheal cannula; -7-5-3 indicate the days of H2 SO3 treatment (H); 1, 2, 3, 4 indicate the days of oral administration of the compounds of the invention (T) and the time of mucus collection (M).
# The mucus collected in day 1 in the morning is considered as a blank; 7 indicates the day of the animal sacrifice after the mucous collection.
# The sputum samples are stored in the freezer (-20° C.) until the investigation of biological and rheological parameters is carried out.
# The samples are investigated for relative viscosity, measured at 37° C. with a Brookfield viscometer (model LT VD) equipped with a 1,565° cone-plate, and aliquoted for biochemical analysis of protein, phospholipids, galactose, sialic acid and fucose contents. Dry weight of the mucus is also determined. For each parameter, cumulative data are referred to a seven days period after the beginning of the treatment and they are extrapolated using the AUC method (area under curve) calculated by the trapazoidal rule. Finally the data are compared with data obtained from controls (vehicle treatment), non bronchitic rabbits (vehicle treatment) and positive controls bronchitic rabbits treated with 0.153M […].
# [2] = system: cough induced by citric acid aerosol in guinea pigs; assay: Guinea pig cough test (citric acid aerosol, Charlier procedure); type: in vivo; settings: for decrease of the antitussive potency in comparison with the reference compound 3 / ED50: guinea pig cough test; for ED50: i.p., 60 minutes after treatment
# Experimental: The techniques described by Charlier et al. (Arch. Int. Pharmacodyn. 134, 306, 1961) and by Stefko et al. (J. Pharm. Exp. Therap., 108, 217, 1953), adapted with minor modifications, are used to investigate the antitussive properties of the compounds of the invention. Codeine phosphate is used as positive reference compound.
# According to the Charlier procedure guinea pigs are exposed to a citric acid aerosol (7.5%) and cough is recorded 60 minutes after the antitussive treatment by i.p. route. Male animals of 300-400 g pigs are placed in perspex box (20×30×30 cm) connected to an aerosol compressor; the animals are subjected to a citric acid saturated atmosphere, 60 minutes after the i.p. injection of a compound of the invention (0.1 and 0.3M solutions; 1 ml/kg).
# The total number of cough strokes and the delay of the first cough are recorded during the first five minutes.
# Five guinea pigs are used for each dose level and the results are compared with controls (vehicle treatment) and codeine phosphate 0.07M solution (standard treatment).
# ED50 and the corresponding delay of first cough stroke are calculated.
# The data obtained by i.p. administration are confirmed by oral administration.
# [3] = Cavia porcellus, ip, 1 h, read-out: ED50
# [4] = Table 1, 0.153 M, oral, AUC over seven days
compound,measurement,setting,value
3-acetylthioacetyl-2-[2'-(o-acetylthioacetoxyphenyl)ethyl]thiazolidine,"Fucose (mg/ml), AUC as a 100% compared to bronchitic controls",[1]; oral,128%
same,"Galactose (mg/ml), AUC as a 100% compared to bronchitic controls",[1]; oral,67%
same,"Mucus production (ml/kg), AUC as a 100% compared to bronchitic controls",[1]; oral,76.1%
same,"Phospholipids (mg/ml), AUC as a 100% compared to bronchitic controls",[1]; oral,47.2%
same,"Protein (mg/ml), AUC as a 100% compared to bronchitic controls",[1]; oral,48%
same,"Sialic acid (mg/ml), AUC as a 100% compared to bronchitic controls",[1]; oral,36.2%
same,"Viscosity (cps), AUC as a 100% compared to bronchitic controls",[1]; oral,70%
same,mucus regulating activity (in words),[1],particularly favourable increase of their mucus regulating activity
same,decrease of the antitussive potency in comparison with the reference compound 3,[2],~10 times
same,ED50,[2],61 mg/kg
CCOCCSCC(=O)N1CCSC1COc1ccccc1OC (stereo not shown) [3-(3-thia-6-oxa-capriloyl)-2-(O-methoxyphenoxy)methylthiazolidine],mucus regulating effectiveness compared with carboxymethylcysteine,[1],at least as effective as 0.153M of 5-carboxymethylcysteine
COc1ccccc1SCC1SCCN1C(=O)CSC(C)=O (stereo not drawn) [3α-acetylthioacetyl-2-(o-methoxyphenylthio)methyl-thiazolidine],ED50,[2]; [3],0.5 to 4 mg/kg
CC(=O)SCC(=O)N1CCSC1COc1ccccc1C (stereo not shown) [3-acetylthioacetyl-2-(o-tolyloxymethyl)thiazolidine],fucose content in the mucus (in words),[1]; tested as mucus regulator,increases
same,galactose content in the mucus (in words),[1]; tested as mucus regulator,poorly affecting
same,protein content in the mucus (in words),[1]; tested as mucus regulator,increases
same,sialic content in the mucus (in words),[1]; tested as mucus regulator,poorly affecting
same,viscosity of the mucus (in words),[1]; tested as mucus regulator,increases
same,antitussive properties (in words),[2],devoid of any antitussive properties
"COc1ccccc1OCC1NCCS1 (stereo not shown) [2-(o-methoxyphenoxy)-methyl-thiazolidine, 2-(o-methoxyphenoxymethyl)thiazolidine]","Fucose (mg/ml), AUC as a 100% compared to bronchitic controls",[1]; oral,76%
same,"Galactose (mg/ml), AUC as a 100% compared to bronchitic controls",[1]; oral,59%
same,"Mucus production (ml/kg), AUC as a 100% compared to bronchitic controls",[1]; oral,124%
same,"Phospholipids (mg/ml), AUC as a 100% compared to bronchitic controls",[1]; oral,106%
same,"Protein (mg/ml), AUC as a 100% compared to bronchitic controls",[1]; oral,92%
same,"Sialic acid (mg/ml), AUC as a 100% compared to bronchitic controls",[1]; oral,85%
same,"Viscosity (cps), AUC as a 100% compared to bronchitic controls",[1]; oral,116%
COc1ccccc1OCC1SCCN1C(=O)CSC(=O)CCC1CCCCC1 (stereo not shown) [3-(3'-cyclohexyl)propionylthioacetyl-2-(o-methoxyphenoxy)methyl-thiazolidine],ED50,[2]; [3],0.5 to 4 mg/kg
CC(=O)SCC(=O)Oc1ccccc1OCC1SCCN1C(=O)CSC(C)=O (stereo not drawn) [3-α-acetylthioacetyl-2-[(o-α-acetylthioacetoxyphenoxy)methyl]thiazolidine],"Fucose (mg/ml), AUC as a 100% compared to bronchitic controls",[1]; oral,147.9%
same,"Galactose (mg/ml), AUC as a 100% compared to bronchitic controls",[1]; oral,72.9%
same,"Mucus production (ml/kg), AUC as a 100% compared to bronchitic controls",[1]; oral,74.0%
same,"Phospholipids (mg/ml), AUC as a 100% compared to bronchitic controls",[1]; oral,49.8%
same,"Protein (mg/ml), AUC as a 100% compared to bronchitic controls",[1]; oral,46.9%
same,"Sialic acid (mg/ml), AUC as a 100% compared to bronchitic controls",[1]; oral,31.3%
same,"Viscosity (cps), AUC as a 100% compared to bronchitic controls",[1]; oral,71.9%
same,mucus regulating activity (in words),[1],particularly favourable increase of their mucus regulating activity
same,ED50,[2]; [3],162 mg/kg
same,decrease of the antitussive potency in comparison with the reference compound 3,[2],~10 times
"N[C@@H](CSCC(=O)O)C(=O)O [S--carboxymethyl cysteine, S-carboxymethyl cysteine, reference compound]","Fucose mg/ml, AUC as a % compared to bronchitic controls",[1]; [4],56%
same,"Galactose mg/ml, AUC as a % compared to bronchitic controls",[1]; [4],64%
same,"Mucus production ml/kg, AUC as a % compared to bronchitic controls",[1]; [4],97%
same,"Phospholipids mg/ml, AUC as a % compared to bronchitic controls",[1]; [4],108%
same,"Protein mg/ml, AUC as a % compared to bronchitic controls",[1]; [4],105%
same,"Sialic acid mg/ml, AUC as a % compared to bronchitic controls",[1]; [4],60%
same,"Viscosity (cps), AUC as a % compared to bronchitic controls",[1]; [4],52%
COc1ccccc1OCC1SCCN1C(=O)CSC(=O)CN1CCN(C)CC1 (stereo not shown) [3-(4'-methylpiperazine-1-yl)acetylthioacetyl-2-(o-methoxyphenoxy)methylthiazolidine],ED50,[2]; [3],0.5 to 4 mg/kg
COc1ccccc1OCC1SCCN1C(=O)CCn1ccnc1 (stereo not shown) [3-(3-imidazol-1-yl)-propionyl-2-(O-methoxyphenoxy)methylthiazolidine],mucus regulating effectiveness compared with carboxymethylcysteine,[1],at least as effective as 0.153M of 5-carboxymethylcysteine
COc1ccccc1OCC1SCCN1C(=O)CSC(=O)c1ccccc1 (stereo not shown) [3-benzoylthioacetyl-2-(o-methoxyphenoxy)methyl-thiazolidine],ED50,[2]; [3],0.5 to 4 mg/kg
CC(=O)SCC(=O)N1CCSC1COc1ccccc1O (stereo not shown) [3-acetylthio-acetyl-2-[(o-hydroxyphenoxy)methyl]thiazolidine],"Fucose (mg/ml), AUC as a 100% compared to bronchitic controls",[1]; oral,90.8%
same,"Galactose (mg/ml), AUC as a 100% compared to bronchitic controls",[1]; oral,38.2%
same,"Mucus production (ml/kg), AUC as a 100% compared to bronchitic controls",[1]; oral,99.2%
same,"Phospholipids (mg/ml), AUC as a 100% compared to bronchitic controls",[1]; oral,47%
same,"Protein (mg/ml), AUC as a 100% compared to bronchitic controls",[1]; oral,62.0%
same,"Sialic acid (mg/ml), AUC as a 100% compared to bronchitic controls",[1]; oral,49.5%
same,"Viscosity (cps), AUC as a 100% compared to bronchitic controls",[1]; oral,31.9%
same,mucus regulating activity (in words),[1],particularly favourable increase of their mucus regulating activity
same,ED50,[2]; [3],60 mg/kg
same,decrease of the antitussive potency in comparison with the reference compound 3,[2],~10 times
O=C(O)C1CSC(COc2ccccc2O)N1 (stereo not shown) [4-carboxy-2-[(o-hydroxyphenoxy)methyl]-thiazolidine],mucus regulating activity (in words),[1],high mucus regulating activity
same,antitussive properties (in words),[2],reduced antitussive potency
COc1ccccc1OCC1SCCN1C(=O)CN1CCN(C)CC1 (stereo not shown) [3-(4'-methyl-piperazin-1'-yl)acetyl-2-(o-methoxyphenoxy)methyl-thiazolidine],ED50,[2]; [3],0.5 to 4 mg/kg
"CCOCCOCC(=O)N1CCSC1COc1ccccc1OC (stereo not shown) [3-(3,6-dioxa-capriloyl)-2-(O-methoxyphenoxy)methyl-thiazolidine]",mucus regulating effectiveness compared with carboxymethylcysteine,[1],at least as effective as 0.153M of 5-carboxymethylcysteine
C#CCOc1ccccc1OCC1SCCN1C(=O)CCn1ccnc1 (stereo not shown) [3-(3-imidazol-1-yl)-propionyl-2-(O-propargyloxyphenoxy)methyl-thiazolidine],mucus regulating effectiveness compared with carboxymethylcysteine,[1],at least as effective as 0.153M of 5-carboxymethylcysteine

# — patent publication US4798898A, “Antitussive and mucus regulating 2-substituted thiazolidines” (Boehringer Biochemia Robin S.p.A., priority 1984, dated 1989)
